Measurements from paper doi:10.1101/2024.08.19.608619, “Discovery of potent SARS-CoV-2 nsp3 macrodomain inhibitors uncovers lack of translation to cellular antiviral response” (bioRxiv, 2024).
Read-outs that look alike come from different tables or passages of the source.

What was measured:
SARS-CoV-2 nsp3-mac1 [1] = biological target: T1, SARS-CoV-2 nsp3-mac1 (Severe acute respiratory syndrome coronavirus 2, UniProt P0DTD1); experiment: biochemical; assay type: biochemical; conditions: SARS-CoV-2 nsp3 macrodomain TR-FRET single point
SARS-CoV-2 nsp3-mac1 [2] = biological target: T1, SARS-CoV-2 nsp3-mac1; experiment: biochemical; parameters: SARS-CoV-2 nsp3 macrodomain TR-FRET single point, per cent inhibition, n=2
[3] = read-out: perc_inhibition_mean, batch_name=ASAP-0000203-002
[4] = read-out: perc_inhibition_mean, batch_name=ASAP-0000242-001
[5] = read-out: perc_inhibition_mean, batch_name=ASAP-0000243-001
[6] = read-out: perc_inhibition_mean, batch_name=ASAP-0000244-001
[7] = read-out: perc_inhibition_mean, batch_name=ASAP-0000245-001
[8] = read-out: perc_inhibition_mean, batch_name=ASAP-0000246-001
[9] = read-out: perc_inhibition_mean, batch_name=ASAP-0000247-001
[10] = read-out: perc_inhibition_mean, batch_name=ASAP-0000248-001
[11] = read-out: perc_inhibition_mean, batch_name=ASAP-0000249-001
[12] = read-out: perc_inhibition_mean, batch_name=ASAP-0000250-001
[13] = read-out: perc_inhibition_mean, batch_name=ASAP-0000251-001
[14] = read-out: perc_inhibition_mean, batch_name=ASAP-0000252-001
[15] = read-out: perc_inhibition_mean, batch_name=ASAP-0000253-001
[16] = read-out: perc_inhibition_mean, batch_name=ASAP-0000254-001
[17] = read-out: perc_inhibition_mean, batch_name=ASAP-0000255-001
[18] = read-out: perc_inhibition_mean, batch_name=ASAP-0000257-001

COCc1cc(CNc2cc3c(O)ncnc3cn2)no1 [ASAP-0000202]
perc_inhibition_mean (SARS-CoV-2 nsp3-mac1 [1]; concentration 50.0 uM): 3.308% | inhibition at 50 µM (SARS-CoV-2 nsp3-mac1 [2]; read-out: perc_inhibition_mean, batch_name=ASAP-0000202-001): 3.31%

Cc1ccc(-c2n[nH]cc2CNc2cnc3[nH]ncc3c2)o1 [ASAP-0000203]
perc_inhibition_mean (SARS-CoV-2 nsp3-mac1 [1]; concentration 50.0 uM): 7.232% | perc_inhibition_mean (SARS-CoV-2 nsp3-mac1 [1]; concentration 50.0 uM, n=2): -21.592% | perc_inhibition_mean (SARS-CoV-2 nsp3-mac1 [1]; concentration 100.0 uM, n=2): -24.84% | inhibition at 50 µM (SARS-CoV-2 nsp3-mac1 [2]; read-out: perc_inhibition_mean, batch_name=ASAP-0000203-001): 7.23% | inhibition at 50 µM (SARS-CoV-2 nsp3-mac1 [2]; [3]): -21.6% | inhibition at 100 µM (SARS-CoV-2 nsp3-mac1 [2]; [3]): -24.8%

Cn1cnc2c(Nc3cncc(CN)c3)nc(N)nc21 [ASAP-0000242]
perc_inhibition_mean (SARS-CoV-2 nsp3-mac1 [1]; concentration 50.0 uM): -14.217% | perc_inhibition_mean (SARS-CoV-2 nsp3-mac1 [1]; concentration 100.0 uM): -28.278% | inhibition at 50 µM (SARS-CoV-2 nsp3-mac1 [2]; [4]): -14.2% | inhibition at 100 µM (SARS-CoV-2 nsp3-mac1 [2]; [4]): -28.3%

CO[C@@]1(C(=O)O)CCN(C(=O)c2ncnc3[nH]ccc23)C1 [ASAP-0000243]
perc_inhibition_mean (SARS-CoV-2 nsp3-mac1 [1]; concentration 50.0 uM): -4.181% | perc_inhibition_mean (SARS-CoV-2 nsp3-mac1 [1]; concentration 100.0 uM): -3.71% | inhibition at 50 µM (SARS-CoV-2 nsp3-mac1 [2]; [5]): -4.18% | inhibition at 100 µM (SARS-CoV-2 nsp3-mac1 [2]; [5]): -3.71%

C[C@]1(C(=O)O)CCCN1C(=O)c1ncnc2[nH]ccc12 [ASAP-0000244]
perc_inhibition_mean (SARS-CoV-2 nsp3-mac1 [1]; concentration 50.0 uM): -5.285% | perc_inhibition_mean (SARS-CoV-2 nsp3-mac1 [1]; concentration 100.0 uM): 5.665% | inhibition at 50 µM (SARS-CoV-2 nsp3-mac1 [2]; [6]): -5.29% | inhibition at 100 µM (SARS-CoV-2 nsp3-mac1 [2]; [6]): 5.67%

FC(F)(F)Oc1ccccc1-c1ncnc2[nH]ccc12 [ASAP-0000245]
perc_inhibition_mean (SARS-CoV-2 nsp3-mac1 [1]; concentration 50.0 uM): -3.369% | perc_inhibition_mean (SARS-CoV-2 nsp3-mac1 [1]; concentration 100.0 uM): 2.117% | inhibition at 50 µM (SARS-CoV-2 nsp3-mac1 [2]; [7]): -3.37% | inhibition at 100 µM (SARS-CoV-2 nsp3-mac1 [2]; [7]): 2.12%

Clc1cnc(OCCNc2ncnc3[nH]ccc23)c(Cl)c1 [ASAP-0000246]
perc_inhibition_mean (SARS-CoV-2 nsp3-mac1 [1]; concentration 50.0 uM): -4.296% | perc_inhibition_mean (SARS-CoV-2 nsp3-mac1 [1]; concentration 100.0 uM): -7.687% | inhibition at 50 µM (SARS-CoV-2 nsp3-mac1 [2]; [8]): -4.3% | inhibition at 100 µM (SARS-CoV-2 nsp3-mac1 [2]; [8]): -7.69%

CO[C@@H](CNc1ncnc2[nH]ccc12)c1cccc(Cl)c1 [ASAP-0000247]
perc_inhibition_mean (SARS-CoV-2 nsp3-mac1 [1]; concentration 50.0 uM): 4.096% | perc_inhibition_mean (SARS-CoV-2 nsp3-mac1 [1]; concentration 100.0 uM): 14.175% | inhibition at 50 µM (SARS-CoV-2 nsp3-mac1 [2]; [9]): 4.1% | inhibition at 100 µM (SARS-CoV-2 nsp3-mac1 [2]; [9]): 14.2%

O=C(NCc1ccc(Cl)cn1)c1ncnc2[nH]ccc12 [ASAP-0000248]
perc_inhibition_mean (SARS-CoV-2 nsp3-mac1 [1]; concentration 50.0 uM): -4.958% | perc_inhibition_mean (SARS-CoV-2 nsp3-mac1 [1]; concentration 100.0 uM): -2.568% | inhibition at 50 µM (SARS-CoV-2 nsp3-mac1 [2]; [10]): -4.96% | inhibition at 100 µM (SARS-CoV-2 nsp3-mac1 [2]; [10]): -2.57%

OC[C@H](Cc1ccccc1)Nc1ncnc2[nH]ccc12 [ASAP-0000249]
perc_inhibition_mean (SARS-CoV-2 nsp3-mac1 [1]; concentration 50.0 uM): -1.29% | perc_inhibition_mean (SARS-CoV-2 nsp3-mac1 [1]; concentration 100.0 uM): 8.928% | inhibition at 50 µM (SARS-CoV-2 nsp3-mac1 [2]; [11]): -1.29% | inhibition at 100 µM (SARS-CoV-2 nsp3-mac1 [2]; [11]): 8.93%

CN(Cc1nccn1Cc1ccccc1)c1ncnc2[nH]ccc12 [ASAP-0000250]
perc_inhibition_mean (SARS-CoV-2 nsp3-mac1 [1]; concentration 50.0 uM): -7.218% | perc_inhibition_mean (SARS-CoV-2 nsp3-mac1 [1]; concentration 100.0 uM): -8.82% | inhibition at 50 µM (SARS-CoV-2 nsp3-mac1 [2]; [12]): -7.22% | inhibition at 100 µM (SARS-CoV-2 nsp3-mac1 [2]; [12]): -8.82%

Clc1cnc(N2CCN(c3ncnc4[nH]ccc34)CC2)c(Cl)c1 [ASAP-0000251]
perc_inhibition_mean (SARS-CoV-2 nsp3-mac1 [1]; concentration 50.0 uM): -1.996% | perc_inhibition_mean (SARS-CoV-2 nsp3-mac1 [1]; concentration 100.0 uM): -6.565% | inhibition at 50 µM (SARS-CoV-2 nsp3-mac1 [2]; [13]): -2% | inhibition at 100 µM (SARS-CoV-2 nsp3-mac1 [2]; [13]): -6.57%

c1nc(NCc2cnc3sccn23)c2[nH]cnc2n1 [ASAP-0000252]
perc_inhibition_mean (SARS-CoV-2 nsp3-mac1 [1]; concentration 50.0 uM): -4.782% | perc_inhibition_mean (SARS-CoV-2 nsp3-mac1 [1]; concentration 100.0 uM): 5.65% | inhibition at 50 µM (SARS-CoV-2 nsp3-mac1 [2]; [14]): -4.78% | inhibition at 100 µM (SARS-CoV-2 nsp3-mac1 [2]; [14]): 5.65%

Cc1cc(C(=O)Nc2[nH]nc3nc(O)ccc23)c2c(C)nn(C)c2n1 [ASAP-0000253]
perc_inhibition_mean (SARS-CoV-2 nsp3-mac1 [1]; concentration 50.0 uM): -6.166% | perc_inhibition_mean (SARS-CoV-2 nsp3-mac1 [1]; concentration 100.0 uM): -3.323% | inhibition at 50 µM (SARS-CoV-2 nsp3-mac1 [2]; [15]): -6.17% | inhibition at 100 µM (SARS-CoV-2 nsp3-mac1 [2]; [15]): -3.32%

Cc1ccc(O)c(CNc2ncnc3[nH]cnc23)n1 [ASAP-0000254]
perc_inhibition_mean (SARS-CoV-2 nsp3-mac1 [1]; concentration 50.0 uM): 0.262% | perc_inhibition_mean (SARS-CoV-2 nsp3-mac1 [1]; concentration 100.0 uM): 6.284% | inhibition at 50 µM (SARS-CoV-2 nsp3-mac1 [2]; [16]): 0.262% | inhibition at 100 µM (SARS-CoV-2 nsp3-mac1 [2]; [16]): 6.28%

O=C(NCc1cccc(F)n1)c1cnc2nc[nH]c(=O)c2c1 [ASAP-0000255]
perc_inhibition_mean (SARS-CoV-2 nsp3-mac1 [1]; concentration 100.0 uM): -14.602% | perc_inhibition_mean (SARS-CoV-2 nsp3-mac1 [1]; concentration 50.0 uM, n=2): -14.823% | inhibition at 50 µM (SARS-CoV-2 nsp3-mac1 [2]; [17]): -14.8% | inhibition at 100 µM (SARS-CoV-2 nsp3-mac1 [2]; [17]): -14.6%

C(=C1CCCCC1)c1ncnc2[nH]ccc12 [ASAP-0000257]
perc_inhibition_mean (SARS-CoV-2 nsp3-mac1 [1]; concentration 50.0 uM, n=2): -5.46% | perc_inhibition_mean (SARS-CoV-2 nsp3-mac1 [1]; concentration 100.0 uM, n=2): 3.464% | inhibition at 50 µM (SARS-CoV-2 nsp3-mac1 [2]; [18]): -5.46% | inhibition at 100 µM (SARS-CoV-2 nsp3-mac1 [2]; [18]): 3.46%
